From patent US8362031B2, “Lonidamine analogues and treatment of polycystic kidney disease” (University of Kansas, priority 2004, dated 2013)

How the values were obtained:
[1] = molecular target: Hsp82 (the yeast homologue of Hsp90) (Saccharomyces cerevisiae, UniProt P02829); assay: Cross-linking of biotinylated analogue to purified protein, competition with excess RC-MC-110; format: binding; details: 10-fold excess of RC-MC-110, purified protein, UV cross-linking
Method: In this example, the binding of cross-linked biotinylated RC-MC-110 ([…]) to Hsp82 (the yeast homologue of Hsp90) was investigated by a cross-linking and biotinylated analogue of RC-MC-110.
The buffer solution in this examples was comprised of 50 mM Tris-HCl, pH 7.4, 50 mM NaCl, 5 mM EDTA, and 50 mM NaF.
First, the protein was diluted with the buffer solution above to give a final concentration of 0.278 mg/ml. The stock protein concentration was 22 mg/ml in 5 μl aliquots.
Next the drug was diluted as follows. Stock concentrations of RC-MC-210 (see structure below) were 0.6 mg/ml (cross-linked biotinylated analogue of RC-MC-110). A 300 μl aliquot was thawed, and separated into two 150 μl aliquots. Dilutions were in the order of 1, ½, ¼, ⅛, 1/16 of the stock solutions. The stock concentration of the competition solution was 0.6 mg/ml RC-MC-210 (549 μM), and about 0.9 mg of RC-MC-110 was dissolved in 150 μl of RC-MC-210 solution to give a final concentration of 6 mg/ml (14.5 mM).
The competition solution had the same concentration of RC-MC-210, but a 10-fold excess of RC-MC-110 (non-biotinylated) to its respective concentration (e.g: ½ RC-MC-210, then the RC-MC-110 was 10× that concentration.)
To prepare of the incubation reactions, 18 μl of protein from a 0.277 mg/ml diluted stock (about 5 μg of protein) was incubated with 2 μl of drug for 1 hr at 4° C. with gentle rocking. […]

ADPKD cells = assay: Mitotic index of ADPKD cells; format: cell-based, human; details: untreated controls 4.1%
Method: For the […] shown in FIG. 10C, 5×10^3 ADPKD cells were plated in a 4-well chamber slide. After 24 hours, medium was changed to include 5% FBS. Cells were treated with increasing concentrations of GMZ for 16 hours, fixed with 4% paraformaldehyde and permeabilized with 0.2% Triton-X100. Cells were mounted with DAPI-containing mounting medium and observed by fluorescence microscopy. Eight to ten separate fields were examined at 10× magnification and the number of mitotic figures (nuclei) were counted and expressed as a percentage of the total number of nuclei per field. Statistical analysis was done to compare the GMZ-treated cells to untreated cells at each time point using One-way ANOVA and the Tukey HSD test for pair-wise comparisons.

Sequence of Hsp82 (the yeast homologue of Hsp90) (P02829 whole entry): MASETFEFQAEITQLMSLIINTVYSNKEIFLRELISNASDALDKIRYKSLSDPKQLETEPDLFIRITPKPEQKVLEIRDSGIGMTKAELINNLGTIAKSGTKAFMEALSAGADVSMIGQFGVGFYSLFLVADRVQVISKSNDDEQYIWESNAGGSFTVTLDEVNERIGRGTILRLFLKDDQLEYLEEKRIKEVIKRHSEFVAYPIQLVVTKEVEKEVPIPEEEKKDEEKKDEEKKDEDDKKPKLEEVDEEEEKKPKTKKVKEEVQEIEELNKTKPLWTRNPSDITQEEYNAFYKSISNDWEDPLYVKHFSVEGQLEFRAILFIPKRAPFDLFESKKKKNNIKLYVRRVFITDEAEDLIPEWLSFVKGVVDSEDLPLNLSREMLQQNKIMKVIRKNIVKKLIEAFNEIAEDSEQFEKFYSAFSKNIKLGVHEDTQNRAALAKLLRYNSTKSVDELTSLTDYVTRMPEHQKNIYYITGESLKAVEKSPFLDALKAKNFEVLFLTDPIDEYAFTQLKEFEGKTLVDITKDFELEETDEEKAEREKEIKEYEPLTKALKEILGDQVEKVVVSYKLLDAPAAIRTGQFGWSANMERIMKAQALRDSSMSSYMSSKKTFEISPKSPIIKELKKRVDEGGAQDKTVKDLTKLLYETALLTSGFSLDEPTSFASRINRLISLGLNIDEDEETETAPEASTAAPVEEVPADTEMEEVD

SMILES	Competition of the binding of the cross-linked biotinylated analogue to Hsp82 [1]	mitotic index (ADPKD cells; 50 μM for 16 h) [%]	mitotic index (ADPKD cells; 100 μM for 16 h, p<0.01) [%]
O=C(O)/C=C/c1nn(Cc2ccc(Cl)cc2Cl)c2cc(C(F)(F)F)ccc12 [RC-MC-110, trans 3-[1-(2,4-dichlorobenzyl)-6-trifluoromethyl-1H-indazol-3-yl]-acrylic acid]	the binding competes with excess RC-MC-110		
O=C(O)CCc1nn(Cc2ccc(Cl)cc2Cl)c2cc(C(F)(F)F)ccc12 [GMZ, 3-[1-(2,4-dichlorobenzyl)-6-trifluoromethyl-1H-indazol-3-yl]-propionic acid]		2.6	1.7
